The record followed here is patent US8388963B2, “Antitumor combinations containing a VEGF-inhibiting agent and 5FU or a derivative thereof” (Aventis Pharma SA, priority 2004, dated 2013).

Where two headings read alike, the source gives them in different places.

One series has as its system MC 13/C mammary tumor. Kind of series: antitumor activity on subcutaneously transplanted mammary tumor in mice (study BCM-1428).
Series [1] is classed as in vivo.
Where [2] appears, read: iv 5-FU 34.6 mg/kg/day (total 103.8), days 4,11,18.
[3] abbreviates: iv 5-FU 55.8 mg/kg/day (total 167.4), days 4,11,18.
The mark [4] stands for this setting: iv 5-FU 90 mg/kg/day (total 270), days 4,11,18.
Where [5] appears, read: iv 5-FU 145 mg/kg/day (total 435), days 4,11,18.
[6] abbreviates: sc VEGF-Trap 2.5 mg/kg/day (total 15), days 4,7,11,14,18,21.
Setting [7] is: sc VEGF-Trap 10 mg/kg/day (total 60), days 4,7,11,14,18,21.
Setting [8] is: sc VEGF-Trap 25 mg/kg/day (total 150), days 4,7,11,14,18,21.
Setting [9] is: sc VEGF-Trap 40 mg/kg/day (total 240), days 4,7,11,14,18,21.

Procedure for MC 13/C mammary tumor: A product is considered to be active if log10 killed cells is greater than or equal to 0.7. A product is considered to be very active if the log10 killed cells is greater than 2.8.
30 to 60 mg of an MC 13/C mammary tumor fragment are transplanted bilaterally, subcutaneously, into the animals subjected to the experiment, generally mice, on day 0. The animals bearing the tumors are randomized before being subjected to the various treatments and controls. In the case of treatment of advanced tumors, the tumors are left to develop until the desired size, the animals having insufficiently developed tumors being eliminated. The animals selected are divided up randomly so as to undergo the treatments and the controls. […] The chemotherapy generally begins from 3 to 22 days after the tumor transplant, according to the type of tumor, and the animals are observed every day. The various groups of animals are weighed three or four times a week until the maximum weight loss is obtained, and then the groups are weighed at least once a week until the end of the trial.
The tumors are measured two or three times a week until the tumor reaches approximately 2 g or until the animal's death if the latter occurs before the tumor reaches 2 g. The animals are autopsied when they are sacrificed.
The antitumor activity is determined as a function of the various parameters recorded.
0.2 ml per mouse is prepared, according to the usual technique, for intravenous administration, from a commercial solution of 5 cm^3 containing 250 mg of 5 FU to be diluted with 5% glucose in water.
These solutions are administered simultaneously, after suitable dilution, by infusion.

Consider `O=c1[nH]cc(F)c(=O)[nH]1` [5-FU, 5-fluorouracil, reference compound], for which the “% T/C (inhibition of tumor growth at day 24)” value in the series with MC 13/C mammary tumor (setting [2]) is given as 34%; in the series with MC 13/C mammary tumor (setting [3]), 12%; in the series on MC 13/C mammary tumor (setting [4]), 0%; in the series on MC 13/C mammary tumor (setting [5]) it was “Toxic”. For the same molecule, the “T-C days (delay of tumor growth)” value in the series on MC 13/C mammary tumor (setting [2]) was found to be 4.6 days; with MC 13/C mammary tumor (setting [3]), 7.8 days; with MC 13/C mammary tumor (setting [4]) it was 12.5 days. Also, the “lck (log cells killed)” value is recorded as 0.5 in the series on MC 13/C mammary tumor (setting [2]), 0.8 in the series with MC 13/C mammary tumor (setting [3]) and 1.3 with MC 13/C mammary tumor (setting [4]). The “% weight loss at the lowest point” value in series [1] (setting [2]) is reported as “+2.3%”; in series [1] (setting [3]) it was 1.1%; in series [1] (setting [4]), 4.8%; in series [1] (setting [5]), 8.7%. Moreover, the “Death due to the treatment” value in series [1] (setting [2]) was 0/5; in series [1] (setting [3]), 0/5; in series [1] (setting [4]), 0/5; in series [1] (setting [5]), 1/5.

As for “VEGF-Trap: fusion protein: VEGFR1 signal sequence, Ig domain D2 of VEGFR1, Ig domain D3 of VEGFR2, Fc domain of IgG1”, the “% T/C (inhibition of tumor growth at day 24)” value was determined as 32% in the series on MC 13/C mammary tumor (setting [6]), 9% with MC 13/C mammary tumor (setting [7]), 8% with MC 13/C mammary tumor (setting [8]) and 4% in the series on MC 13/C mammary tumor (setting [9]). Also, the “T-C days (delay of tumor growth)” value in the series on MC 13/C mammary tumor (setting [6]) was 5.2 days; with MC 13/C mammary tumor (setting [7]) it was 12.1 days; in the series on MC 13/C mammary tumor (setting [8]), 13.9 days; with MC 13/C mammary tumor (setting [9]), 12.7 days. In addition, the “lck (log cells killed)” value with MC 13/C mammary tumor (setting [6]) is recorded as 0.6; in the series on MC 13/C mammary tumor (setting [7]), 1.3; in the series on MC 13/C mammary tumor (setting [8]) it was 1.5; with MC 13/C mammary tumor (setting [9]), 1.4. Further, the “% weight loss at the lowest point” value turned out to be 0.9% in series [1] (setting [6]), 1.1% in series [1] (setting [7]), 1.1% in series [1] (setting [8]) and 2.3% in series [1] (setting [9]). Moreover, the “Death due to the treatment” value in series [1] (setting [6]), in series [1] (setting [7]), in series [1] (setting [8]) and in series [1] (setting [9]) was 0/5 in each case.
